Assay results taken from patent US8846710B2, “Method of preferentially inducing the biosynthesis of interferon” (3M Innovative Properties Company, priority 2005, dated 2014).

Assays:
[1] = test system: tumor necrosis factor (α) (TNF-α); assay: Cytokine induction in human cells: TNF-α secreted by PBMC into culture media (ORIGEN M-Series immunoassay); format: cell-based; design: key to Maximal Response (pg/mL) TNF / Maximal Response TNF: If any negative values result from background subtraction, the reading is reported as “*”, and is noted as not reliably detectable; conditions: for minimal effective concentration / Minimum Effective Concentration TNF / Maximal Response TNF: human PBMC; for minimal effective concentration: lowest tested concentration inducing TNF-α over usually 40 pg/mL, median where more than one experiment, read-out: Minimum Effective Concentration (μM) TNF; for Maximal Response (pg/mL) TNF: maximal response in dose response curve; for Maximal Response (pg/mL) TNF / Maximal Response TNF: median; for Minimum Effective Concentration TNF: median where tested in more than one experiment
From the text: (§1) Cytokine Induction in Human Cells
(§2) An in vitro human blood cell system is used to assess cytokine induction. Activity is based on the measurement of interferon (α) and tumor necrosis factor (α) (IFN-α and TNF-α, respectively) secreted into culture media as described by Testerman et. al. in “Cytokine Induction by the Immunomodulators Imiquimod and S-27609”, Journal of Leukocyte Biology, 58, 365-372 (September, 1995).
(§3) Blood Cell Preparation for Culture
(§4) Whole blood from healthy human donors is collected by venipuncture into vacutainer tubes or syringes containing EDTA. Peripheral blood mononuclear cells (PBMC) are separated from whole blood by density gradient centrifugation using HISTOPAQUE-1077 (Sigma, St. Louis, Mo.) or Ficoll-Paque Plus (Amersham Biosciences Piscataway, N.J.). Blood is diluted 1:1 with Dulbecco's Phosphate Buffered Saline (DPBS) or Hank's Balanced Salts Solution (HBSS). Alternately, whole blood is placed in Accuspin (Sigma) or LeucoSep (Oreiner Bio-One, Inc., Longwood, Fla.) centrifuge frit tubes containing density gradient medium. The PBMC layer is collected and washed twice with DPBS or HBSS and re-suspended at 4×10^6 cells/mL in RPMI complete. The PBMC suspension is added to 96 well flat bottom sterile tissue culture plates containing an equal volume of RPMI complete media containing test compound.
(§5) The compounds are solubilized in dimethyl sulfoxide (DMSO). The DMSO concentration should not exceed a final concentration of 1% for addition to the culture wells. The compounds are generally tested at concentrations ranging from 30-0.014 μM. Controls include cell samples with media only, cell samples with DMSO only (no compound), and cell samples with reference compound.
(§6) The solution of test compound is added at 60 μM to the first well containing RPMI complete and serial 3 fold dilutions are made in the wells. The PBMC suspension is then added to the wells in an equal volume, bringing the test compound concentrations to the desired range (usually 30-0.014 μM). The final concentration of PBMC suspension is 2×10^6 cells/mL. The plates are covered with sterile plastic lids, mixed gently and then incubated for 18 to 24 hours at 37° C. in a 5% carbon dioxide atmosphere.
(§7) Following incubation the plates are centrifuged for 10 minutes at 1000 rpm (approximately 200×g) at 4° C. The cell-free culture supernatant is removed and transferred to sterile polypropylene tubes. Samples are maintained at −30 to −70° C. until analysis. The samples are analyzed for IFN-α by ELISA and for TNF-α by IGEN/BioVeris Assay.
(§8) Interferon (α) and Tumor Necrosis Factor (α) Analysis
The TNF-α concentration is determined by ORIGEN M-Series Immunoassay and read on an IGEN M-8 analyzer from BioVeris Corporation, formerly known as IGEN International, Gaithersburg, Md. The immunoassay uses a human TNF-α capture and detection antibody pair (Catalog Numbers AHC3419 and AHC3712) from Biosource International, Camarillo, Calif. Results are expressed in pg/mL.
(§9) In total, the data output of the assay consists of concentration values of TNF-α and IFN-α (y-axis) as a function of compound concentration (x-axis).
Analysis of the data has two steps. First, the greater of the mean DMSO (DMSO control wells) or the experimental background (usually 20 pg/mL for IFN-α and 40 pg/mL for TNF-α) is subtracted from each reading. If any negative values result from background subtraction, the reading is reported as “*”, and is noted as not reliably detectable. In subsequent calculations and statistics, “*”, is treated as a zero. Second, all background subtracted values are multiplied by a single adjustment ratio to decrease experiment to experiment variability. The adjustment ratio is the area of the reference compound in the new experiment divided by the expected area of the reference compound based on the past 61 experiments (unadjusted readings). […]

interferon (α) (IFN-α) = assay: Cytokine induction in human cells: IFN-α secreted by PBMC into culture media (ELISA); format: cell-based; conditions: for minimal effective concentration / Maximal Response IFN / Minimum Effective Concentration IFN: human PBMC; for minimal effective concentration: lowest tested concentration inducing IFN-α over usually 20 pg/mL, median where more than one experiment, read-out: Minimum Effective Concentration (μM) IFN; for Maximal Response (pg/mL) IFN: maximal response in dose response curve, median; for Maximal Response IFN / Minimum Effective Concentration IFN: median where tested in more than one experiment
From the text: as §1, §2, §3, §4, §5, §6, §7, §8
IFN-α concentration is determined with a human multi-subtype calorimetric sandwich ELISA (Catalog Number 41105) from PBL Biomedical Laboratories, Piscataway, N.J. Results are expressed in pg/mL.
as §9
Analysis of the data has two steps. First, the greater of the mean DMSO (DMSO control wells) or the experimental background (usually 20 pg/mL for IFN-α and 40 pg/mL for TNF-α) is subtracted from each reading. If any negative values result from background subtraction, the reading is reported as “*”, and is noted as not reliably detectable. In subsequent calculations and statistics, “*”, is treated as a zero. Second, all background subtracted values are multiplied by a single adjustment ratio to decrease experiment to experiment variability. The adjustment ratio is the area of the reference compound in the new experiment divided by the expected area of the reference compound based on the past 61 experiments (unadjusted readings). […] The reference compound used is 2-[4-amino-2-ethoxymethyl-6,7,8,9-tetrahydro-α,α-dimethyl-1H-imidazo[4,5-c]quinolin-1-yl]ethanol hydrate (U.S. Pat. No. 5,352,784; Example 91) and the expected area is the sum of the median dose values from the past 61 experiments. […]

[2] = Table 10, * = below experimental background level
[3] = Table 11, * = TNF below experimental background of 40 pg/mL
[4] = Table 12, * = below the experimental background of 40 pg/mL
[5] = Table 8, background-subtracted, reference-adjusted
[6] = Table 7, background-subtracted, reference-adjusted

Row | SMILES | Maximal Response (pg/mL) IFN (interferon (α) (IFN-α); [2]) | Minimum Effective Concentration TNF ([1]; Table 11) | Maximal Response TNF [1, 3] | Maximal Response IFN (interferon (α) (IFN-α); Table 11) | Minimum Effective Concentration IFN (interferon (α) (IFN-α); Table 11) | other results
1 | CCCNC(=O)NCCCCn1c(COCC)nc2c(N)nc3cc(-c4cccnc4)ccc3c21 [Analog 29] | 936 pg/mL | – | – | – | – | minimal effective concentration ([1]; Table 10): 1.11 µM; Maximal Response (pg/mL) TNF [1, 2]: 1059 pg/mL; minimal effective concentration (interferon (α) (IFN-α); Table 10): 0.04 µM
2 | COCCc1nc2c(N)nc3ccccc3c2n1CCCNC(=O)NC(C)C [Analog 83] | – | 1.11 µM | 1259 pg/mL | 1289 pg/mL | 0.12 µM | –
3 | CCNC(=O)NCCn1c(CCO)nc2c(N)nc3ccccc3c21 [Example 137] | – | 30 µM | 73 pg/mL | 801 pg/mL | 30 µM | –
4 | CS(=O)(=O)NCCn1c(CCO)nc2c(N)nc3cccnc3c21 [Example 147, N-{2-[4-Amino-2-(2-hydroxyethyl)-1H-imidazo[4,5-c][1,5]naphthyridin-1-yl]ethyl}methanesulfonamide] | – | – | – | – | – | Maximal Response TNF [1, 4]: *; Maximal Response IFN (interferon (α) (IFN-α); Table 12): 49 pg/mL
5 | COCCc1nc2c(N)nc3cc(-c4cccnc4)ccc3c2n1CCCN1CCCC1=O [Analog 39] | 753 pg/mL | – | – | – | – | minimal effective concentration ([1]; Table 10): 1.11 µM; Maximal Response (pg/mL) TNF [1, 2]: 380 pg/mL; minimal effective concentration (interferon (α) (IFN-α); Table 10): 0.12 µM
6 | CCOCc1nc2c(N)nc3ccccc3c2n1CC(C)(C)N [Analog 111] | – | 0.37 µM | 11475 pg/mL | 656 pg/mL | 0.12 µM | –
7 | Cc1nc2c(N)nc3ccccc3c2n1CCCNC(=O)C(C)C [Analog 123] | – | 10 µM | 405 pg/mL | 3011 pg/mL | 1.11 µM | –
8 | CCc1nc2c(N)nc3ccccc3c2n1CCNC(=O)CC(C)C [Analog 105] | – | 30 µM | 587 pg/mL | 851 pg/mL | 3.33 µM | –
9 | CC(C)(O)Cn1c(CO)nc2c(N)nc3cccnc3c21 [Example 148, 1-(4-Amino-2-hydroxymethyl-1H-imidazo[4,5-c][1,5]naphthyridin-1-yl)-2-methylpropan-2-ol] | – | – | – | – | – | Maximal Response (pg/mL) TNF [1, 5]: 684 pg/mL; Maximal Response TNF [1, 4]: 1316 pg/mL; Maximal Response (pg/mL) IFN (interferon (α) (IFN-α); [5]): 3038 pg/mL; Maximal Response IFN (interferon (α) (IFN-α); Table 12): 2290 pg/mL
10 | COCCc1nc2c(N)nc3cc(-c4cccnc4)ccc3c2n1CC(C)(C)O [Analog 12] | 1065 pg/mL | – | – | – | – | minimal effective concentration ([1]; Table 10): 0.014 µM; Maximal Response (pg/mL) TNF [1, 2]: 8386 pg/mL; minimal effective concentration (interferon (α) (IFN-α); Table 10): 0.014 µM
11 | COCCc1nc2c(N)nc3ccccc3c2n1CC(C)(C)NS(C)(=O)=O [Analog 5, N-{2-[4-Amino-2-(2-methoxyethyl)-1H-imidazo[4,5-c]quinolin-1-yl]-1,1-dimethylethyl}methanesulfonamide] | – | – | 13908 pg/mL | 1308 pg/mL | – | Maximal Response (pg/mL) TNF [1, 6]: 12518 pg/mL; Maximal Response (pg/mL) IFN (interferon (α) (IFN-α); [6]): 825 pg/mL
12 | CCOCc1nc2c(N)nc3cc(-c4cccnc4)ccc3c2n1CCCCNC(=O)NC1CCCC1 [Analog 33] | 925 pg/mL | – | – | – | – | minimal effective concentration ([1]; Table 10): 1.11 µM; Maximal Response (pg/mL) TNF [1, 2]: 1618 pg/mL; minimal effective concentration (interferon (α) (IFN-α); Table 10): 0.014 µM
13 | CCCc1nc2c(N)nc3ccccc3c2n1CC(C)(C)NS(C)(=O)=O [Analog 3, N-[2-(4-Amino-2-propyl-1H-imidazo[4,5-c]quinolin-1-yl)-1,1-dimethylethyl]methanesulfonamide] | – | – | 9780 pg/mL | – | – | Maximal Response (pg/mL) TNF [1, 6]: 7245 pg/mL; Maximal Response (pg/mL) IFN (interferon (α) (IFN-α); [6]): 832 pg/mL
14 | Cc1ccc(C)c(S(=O)(=O)NCCCCn2c(CCO)nc3c(N)nc4ccccc4c32)c1 [Example 36] | – | >30 µM | * | 3316 pg/mL | 10 µM | –
15 | CCOCc1nc2c(N)nc3ccccc3c2n1CCCCNS(C)(=O)=O [Analog 51] | – | 1.11 µM | 1439 pg/mL | 2581 pg/mL | 0.04 µM | –
16 | COCCc1nc2c(N)nc3cc(-c4ccncc4)ccc3c2n1CCCN1CCCC1=O [Analog 40] | 1179 pg/mL | – | – | – | – | minimal effective concentration ([1]; Table 10): 3.33 µM; Maximal Response (pg/mL) TNF [1, 2]: 943 pg/mL; minimal effective concentration (interferon (α) (IFN-α); Table 10): 0.37 µM
17 | COCCc1nc2c(N)nc3ccccc3c2n1CCCNC(=O)N1CCOCC1 [Analog 89] | – | 0.014 µM | 6169 pg/mL | 5915 pg/mL | 0.014 µM | –
18 | Nc1nc2cc(-c3cncc(CO)c3)ccc2c2c1nc(CO)n2CC1CCCCC1 [Example 205] | 1087 pg/mL | – | – | – | – | –
19 | CC(C)NC(=O)NCCn1c(CO)nc2c(N)nc3ccccc3c21 [Example 365, N-{2-[4-amino-2-(hydroxymethyl)-1H-imidazo[4,5-c]quinolin-1-yl]ethyl}-N′-isopropylurea] | – | – | – | 1488 pg/mL | – | –
20 | CC(C)(N)Cn1c(CO)nc2c(N)nc3ccccc3c21 [Example 4, 1-(2-Amino-2-methylpropyl)-2-hydroxymethyl-1H-imidazo[4,5-c]quinolin-4-amine] | – | – | – | 1893 pg/mL | – | –
21 | CC(C)C(=O)N1CCC(Cn2c(CO)nc3c(N)nc4cc(-c5cccnc5)ccc4c32)CC1 [Example 191] | 969 pg/mL | – | – | – | – | –
22 | Nc1nc2ccccc2c2c1nc(CCO)n2CCCNC(=O)c1cc2ccccc2cn1 [Example 2, N-{3-[4-Amino-2-(2-hydroxyethyl)-1H-imidazo[4,5-c]quinolin-1-yl]propyl}isoquinoline-3-carboxamide] | – | – | – | 507 pg/mL | – | –
23 | CC(C)(O)Cn1c(CO)nc2c(N)nc3cc(-c4cncc(CO)c4)ccc3c21 [Example 189] | 4357 pg/mL | – | – | – | – | –
24 | Nc1nc2cc(-c3cccc(C(=O)N4CCOCC4)c3)ccc2c2c1nc(CO)n2CC1CCCCC1 [Example 206] | 1266 pg/mL | – | – | – | – | –
